# Assay results published in patent US9198891B2, “Method of treating cancer by inhibition of protein kinase-like endoplasmic reticulum protein kinase” (New York University, priority 2010, dated 2015).
# Test system: Mouse PERK
# Assay: In vitro kinase inhibition assay: PERK-mediated eIF2α phosphorylation
# Format: biochemical
# Settings: for Activity (ability to inhibit PERK-mediated eIF2α phosphorylation in vitro): compounds selected in the initial VLS; for relative inhibition of PERK among the six active compounds: initial VLS screening; for inhibition of PERK-dependent eIF2α phosphorylation in vitro: tested at 10 μM (FIG. 1C)
# Description: Mouse PERK proteins comprising the cytoplasmic portion of the molecule with the delta loop deleted were pre-incubated with varying concentrations of compound at room temperature for 10 minutes. This construct thus contains close to a minimal catalytic domain of PERK, closely similar but not identical to SEQ ID NO: 1. The kinase reaction was initiated by the addition of 2 μM ATP, 0.2 μM γ-[^32P]ATP, 10 μM eIF2α and allowed to proceed at room temperature for 15 minutes (Marciniak et al., “Activation-Dependent Substrate Recruitment by the Eukaryotic Translation Initiation Factor 2 Kinase PERK,” J Cell Biol 172: 201-9 (2006), which is hereby incorporated by reference in its entirety). The phosphorylated eIF2α was then separated on 14% SDS-PAGE and visualized by autoradiography. To determine the selectivity of the compounds, their ability to inhibit protein kinase PKA was also evaluated. Briefly, PKA was pre-incubated with the compound at 40 μM, the highest concentration used in the PERK assay, for 10 minutes. Then, 10 μM ATP, 0.2 μM γ-[^32P]ATP and 10 μM GSTag were added, followed by the incubation at room temperature for 15 minutes.
Compound,Activity (ability to inhibit PERK-mediated eIF2α phosphorylation in vitro),concentration range over which PERK inhibition is displayed,relative inhibition of PERK among the six active compounds,inhibition of PERK-dependent eIF2α phosphorylation in vitro
CCC(Oc1ccccc1)C(=O)Nc1sc2c(c1C(N)=O)CCC(C(C)(C)C)C2 (stereo not drawn) [Compound B2],active,–,–,–
Cc1ccc(OCCOCCOc2ccccc2/C=C2\SC(=N)NC2=O)cc1 [Compound C1],active,–,–,–
NS(=O)(=O)c1ccc(CNC(=O)/C=C/c2ccc3c(c2)OCO3)cc1 [Compound C6],inactive,–,–,–
ON=C1CC2C3CC(C12)C1/C(=N\O)CC31 (stereo not drawn) [Compound A1],inactive,–,–,–
O=C(COc1ccccc1)NC(=S)Nc1ccc(O)c(-c2nc3ccccc3s2)c1 [Compound D1],active,1 to 25 µM,relatively stronger inhibition of PERK,active
CCOC(=O)c1c(NC(=O)CSc2nc(N)cc(=O)[nH]2)sc2c1CCC2 [Compound E1],active,–,–,–
O=C(Nc1cccc(Oc2ccc3c(c2)C(=O)N(c2ccc(O)cc2)C3=O)c1)c1ccco1 [Compound B6],active,–,–,–
O=C(Nc1ccc(O)cc1C(=O)O)c1ccc(C(=O)Nc2ccc(O)cc2C(=O)O)cc1 [Compound C3],inactive,–,–,–
O=C(CNC(=O)c1ccco1)N/N=C/c1ccc(O)cc1 [Compound A2],inactive,–,–,–
CCC(Sc1nnc(COc2ccccc2C)n1C)C(=O)Nc1ccc(C(C)=O)cc1 (stereo not drawn) [Compound D4],inactive,–,–,–
COc1cc(/C=N\N(C)c2nc(-c3ccccc3)cc(-c3ccc(Br)cc3)n2)ccc1O [Compound A4],active,narrow range of concentration,relatively stronger inhibition of PERK,active
Cc1ccccc1N1C(=O)CC(SC(=N)N/N=C/c2ccc(O)c(O)c2)C1=O (stereo not drawn) [Compound A3],inactive,–,–,–
